Results on one compound are retold here after paper PMC12564639, “Discovery of a Novel Anticoagulant Cystine Knot Peptide from Spider Venom Gland Transcriptome” (International Journal of Molecular Sciences, 2025).

The structures appear in SMILES notation. Peptide text beside a SMILES is read from it.

This data set deals with human keratinocytes (HaCaT). Nature of the data set: Cytotoxicity (CCK-8), HaCaT. Type of data set: cell-based. The note with it: 24 h, n = 3. As for the experimental part:
The cytotoxicity of GC38 was evaluated in human embryonic kidney cells (HEK293T), human keratinocytes (HaCaT), and murine macrophage (RAW264.7) cell lines. The cells were from Kunming Cell Bank, Chinese Academy of Sciences. HEK293T and HaCaT cells were cultured in DMEM supplemented with 10% fetal bovine serum (FBS) and 1% penicillin-streptomycin, and RAW264.7 cells were maintained in RPMI 1640 containing 10% FBS and 1% penicillin–streptomycin, with all cell lines incubated at 37 °C under 5% CO2. For cytotoxicity assessment, cells were seeded at a density of 1 × 10^5 cells per well in 96-well plates and incubated for 12 h. […] After 24 h incubation, cell viability was determined using the CCK-8 assay (10 μL/well). Absorbance was measured at 450 nm using a multi-mode microplate reader (BioTek Synergy™ H1, Winooski, VT, USA). Untreated cells and cells treated with 10% DMSO served as negative and positive controls, respectively. Viability percentages were calculated relative to the untreated control. All experiments were conducted in triplicate, and data were expressed as mean ± SEM.

As to `CSCC[C@@H]1NC(=O)[C@H](CC(N)=O)NC(=O)CNC(=O)CNC(=O)[C@H](Cc2c[nH]cn2)NC(=O)[C@H](CCCNC(=N)N)NC(=O)CNC(=O)[C@@H]2CSSC[C@@H]3NC(=O)[C@H](CCCNC(=N)N)NC(=O)[C@H](C)NC(=O)CNC(=O)[C@H](CCCCN)NC(=O)CNC(=O)[C@H](CO)NC(=O)[C@@H](NC(=O)CN)CSSC[C@H](NC(=O)[C@H](CSSC[C@@H](C(=O)N[C@@H](CCC(=O)O)C(=O)N[C@@H](Cc4c[nH]c5ccccc45)C(=O)N[C@@H](CC(N)=O)C(=O)N[C@@H](Cc4c[nH]c5ccccc45)C(=O)N[C@@H](CCCCN)C(=O)N[C@H](C(=O)NCC(=O)O)[C@@H](C)O)NC(=O)[C@H](CO)NC(=O)[C@H](CCCCN)NC(=O)[C@H](Cc4ccc(O)cc4)NC1=O)NC(=O)[C@H](CCCCN)NC(=O)[C@H](CO)NC(=O)[C@@H]1CCCN1C(=O)[C@H](C)NC3=O)C(=O)N[C@@H](CO)C(=O)NCC(=O)N[C@@H](CC(C)C)C(=O)N[C@@H](CO)C(=O)N2` [GC38] (HELM PEPTIDE1{G.C.S.G.K.G.A.R.C.A.P.S.K.C.C.S.G.L.S.C.G.R.H.G.G.N.M.Y.K.S.C.E.W.N.W.K.T.G}$PEPTIDE1,PEPTIDE1,2:R3-15:R3|PEPTIDE1,PEPTIDE1,9:R3-20:R3|PEPTIDE1,PEPTIDE1,14:R3-31:R3$$$V2.0), the “cell viability HaCaT” value (50 μM, serum-free medium, CCK-8, 450 nm, relative to untreated control) was “greater than 95%”. The “cytotoxicity HaCaT” value (0.1–50 μM, CCK-8) is “negligible cytotoxicity”.
